Test results published in patent US4005076A, “Hydrazones of 3-formylrifamycin SV” (Gruppo Lepetit S.p.A., priority 1971, dated 1977).
In brackets after ≈: the same amount, converted by molar mass.

Tests used:
[1] = molecular target: T1, mouse embryo RNA-polymerase I (ME-RNA-P1) (Mus musculus, UniProt O35134+P70700); assay: effect on mouse embryo RNA-polymerase I; format: biochemical; details: Single Stranded Calf-Thymus DNA; for remaining activity at 10 µg: 10μg, read-out: % Control Activity of ME-RNA-P1 at 10μg; for remaining activity at 100 µg: 100μg, read-out: % Control Activity of ME-RNA-P1 at 100μg
T1 construct: mouse embryo RNA-polymerase I (ME-RNA-P1); endogenous in cells; host or cells: mouse embryo cells
Description: (§1) Calf-Thymus DNA. Me-RNA-P1 and ME-RNA-P2 : Single Stranded

[2] = test system: mouse embryo DNA-polymerase I (ME-DNA-P1); assay: effect on mouse embryo DNA-polymerase I; format: biochemical; details: activated Calf-Thymus DNA
Description: (§2) Oligo dT.Poly rA. ME-DNA-P1 and ME-DNA-p2 : activated

[3] = molecular target: T2, sarcoma virus DNA-polymerases (SSV-DNA-P) (Woolly monkey sarcoma virus, UniProt P03359); assay: effect on activity of SSV-polymerase; format: biochemical; details: template Oligo dT.Poly rA
T2 construct: sarcoma virus DNA-polymerases (SSV-DNA-P)
T2 sequence (P03359 642-1310): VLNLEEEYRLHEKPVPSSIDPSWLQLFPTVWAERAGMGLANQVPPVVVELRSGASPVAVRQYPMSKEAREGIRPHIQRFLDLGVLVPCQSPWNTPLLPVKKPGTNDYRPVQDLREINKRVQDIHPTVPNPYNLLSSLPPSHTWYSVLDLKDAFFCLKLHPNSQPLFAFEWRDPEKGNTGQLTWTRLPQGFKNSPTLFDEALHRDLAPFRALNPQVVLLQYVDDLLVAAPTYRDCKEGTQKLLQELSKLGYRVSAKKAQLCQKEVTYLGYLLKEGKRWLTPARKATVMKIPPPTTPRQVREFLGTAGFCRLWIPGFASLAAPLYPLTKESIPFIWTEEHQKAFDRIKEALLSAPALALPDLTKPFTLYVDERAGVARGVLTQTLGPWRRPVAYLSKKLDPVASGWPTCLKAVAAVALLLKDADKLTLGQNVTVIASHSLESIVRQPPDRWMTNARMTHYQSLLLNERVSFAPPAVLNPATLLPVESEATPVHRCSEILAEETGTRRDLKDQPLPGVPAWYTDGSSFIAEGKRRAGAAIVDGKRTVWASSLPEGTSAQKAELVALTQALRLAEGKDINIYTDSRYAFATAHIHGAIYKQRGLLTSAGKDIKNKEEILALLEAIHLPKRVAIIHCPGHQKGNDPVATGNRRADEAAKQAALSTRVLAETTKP
Description: Templates used in the Enzymatic Assays were the following: SSV-DNA-P: […]

[4] = molecular target: T3, mouse embryo RNA-polymerase II (ME-RNA-P2) (Mus musculus, UniProt P08775+Q8CFI7); assay: effect on mouse embryo RNA-polymerase II; format: biochemical; details: Single Stranded Calf-Thymus DNA; for remaining activity at 10 µg: 10μg, read-out: % Control Activity of ME-RNA-P2 at 10μg; for remaining activity at 100 µg: 100μg, read-out: % Control Activity of ME-RNA-P2 at 100μg
T3 construct: mouse embryo RNA-polymerase II (ME-RNA-P2); endogenous in cells; host or cells: mouse embryo cells
Description: as §1

[5] = test system: mouse embryo DNA-polymerase II (ME-DNA-P2); assay: effect on mouse embryo DNA-polymerase II; format: biochemical; details: activated Calf-Thymus DNA
Description: as §2

[6] = test system: Staphylococcus aureus strain which is resistant to rifampicin (Staph. aureus Tour); assay: in vitro minimal inhibitory concentration against rifampicin-resistant Staphylococcus aureus strain; format: cell-based; details: Staphylococcus aureus, read-out: Minimal inhibitory concentration
Experimental: In particular, compounds illustrative of the invention at concentrations of about 10 to 20 μg/ml or less inhibit the growth of a Staph. aureus Tour strain resistant to rifampicin.
One of the most important characteristics of the new hydrazones is their activity against rifampicin-resistant Staphylococcus aureus strains. Rifampicin, that is 3-(4-methyl-1-piperazinyl)iminomethylrifamycin SV, disclosed in U.S. Pat. No. 3,342,810, is the most known and widely used rifamycin derivative in therapeutic practice.
The data of the new compounds are compared with those of representative hydrazones disclosed in U.S. Pat. No. 3,342,810.

SMILES: COC1C=COC2(C)Oc3c(C)c(O)c4c(O)c(cc(OCC(=O)O)c4c3C2=O)NC(=O)C(C)=CC=CC(C)C(O)C(C)C(O)C(C)C(OC(C)=O)C1C (stereo not drawn) [rifamycin B]
- remaining activity at 10 µg [1]: 76%
- remaining activity at 100 µg [1]: 85%
- % Control Activity of ME-DNA-P1 at 10μg [2]: 103%
- % Control Activity of ME-DNA-P1 at 100μg [2]: 81%
- % Control Activity of SSV-DNA-P at 5μg [3]: 96%
- % Control Activity of SSV-DNA-P at 10μg [3]: 104%
- % Control Activity of SSV-DNA-P at 100μg [3]: 75%
- remaining activity at 10 µg [4]: 102%
- remaining activity at 100 µg [4]: 95%
- % Control Activity of ME-DNA-P2 at 10μg [5]: 46%
- % Control Activity of ME-DNA-P2 at 100μg [5]: 4%

SMILES: COC1C=COC2(C)Oc3c(C)c(O)c4c(O)c(c(C=NNc5ccccc5C)c(O)c4c3C2=O)NC(=O)C(C)=CC=CC(C)C(O)C(C)C(O)C(C)C(OC(C)=O)C1C (stereo not drawn) [Example 38]
- MIC [6]: 20 µg/mL (≈ 24.1 µM)

SMILES: CO[C@H]1/C=C/O[C@@]2(C)Oc3c(C)c(O)c4c(c3C2=O)C(=O)C=C(NC(=O)/C(C)=C\C=C\[C@H](C)[C@H](O)[C@@H](C)[C@@H](O)[C@@H](C)[C@H](OC(C)=O)[C@@H]1C)C4=O [rifamycin S]
- remaining activity at 10 µg [1]: 102%
- remaining activity at 100 µg [1]: 90%
- % Control Activity of ME-DNA-P1 at 10μg [2]: 84%
- % Control Activity of ME-DNA-P1 at 100μg [2]: 86%
- % Control Activity of SSV-DNA-P at 5μg [3]: 88%
- % Control Activity of SSV-DNA-P at 10μg [3]: 108%
- % Control Activity of SSV-DNA-P at 100μg [3]: 100%
- remaining activity at 10 µg [4]: 78%
- remaining activity at 100 µg [4]: 81%
- % Control Activity of ME-DNA-P2 at 10μg [5]: 94%
- % Control Activity of ME-DNA-P2 at 100μg [5]: 9%

SMILES: COC1C=COC2(C)Oc3c(C)c(O)c4c(O)c(c(C=NNc5ccccc5)c(O)c4c3C2=O)NC(=O)C(C)=CC=CC(C)C(O)C(C)C(O)C(C)C(OC(C)=O)C1C (stereo not drawn) [Phenylhydrazone of 3-formylrifamycin SV]
- MIC [6]: 100 µg/mL (≈ 123 µM)

SMILES: CCCCCN(C)N=Cc1c2c(O)c3c(O)c(C)c4c(c3c1O)C(=O)C(C)(OC=CC(OC)C(C)C(OC(C)=O)C(C)C(O)C(C)C(O)C(C)C=CC=C(C)C(=O)N2)O4 (stereo not drawn) [Example 3]
- MIC [6]: 10 µg/mL (≈ 12.1 µM)

SMILES: COC1C=COC2(C)Oc3c(C)c(O)c4c(O)c(c(C=NNc5cc(-c6ccccc6)nc6cc(C(F)(F)F)ccc56)c(O)c4c3C2=O)NC(=O)C(C)=CC=CC(C)C(O)C(C)C(O)C(C)C(OC(C)=O)C1C (stereo not drawn) [Example 23]
- MIC [6]: 20 µg/mL (≈ 19.8 µM)

SMILES: COC1C=COC2(C)Oc3c(C)c(O)c4c(O)c(c(C=NNC56CC7CC(CC(C7)C5)C6)c(O)c4c3C2=O)NC(=O)C(C)=CC=CC(C)C(O)C(C)C(O)C(C)C(OC(C)=O)C1C (stereo not drawn) [Example 47]
- MIC [6]: 5 µg/mL (≈ 5.72 µM)

SMILES: CNN=Cc1c2c(O)c3c(O)c(C)c4c(c3c1O)C(=O)C(C)(OC=CC(OC)C(C)C(OC(C)=O)C(C)C(O)C(C)C(O)C(C)C=CC=C(C)C(=O)N2)O4 (stereo not drawn) [N-Methylhydrazone of 3-formylrifamycin SV]
- MIC [6]: > 100 µg/mL

SMILES: COC1C=COC2(C)Oc3c(C)c(O)c4c(O)c(c(C=NNCCOc5c(Cl)cc(N)cc5Cl)c(O)c4c3C2=O)NC(=O)C(C)=CC=CC(C)C(O)C(C)C(O)C(C)C(OC(C)=O)C1C (stereo not drawn) [Example 34]
- MIC [6]: 50 µg/mL (≈ 53 µM)

SMILES: COc1ccccc1NN=Cc1c2c(O)c3c(O)c(C)c4c(c3c1O)C(=O)C(C)(OC=CC(OC)C(C)C(OC(C)=O)C(C)C(O)C(C)C(O)C(C)C=CC=C(C)C(=O)N2)O4 (stereo not drawn) [Example 33]
- MIC [6]: 50 µg/mL (≈ 59.1 µM)

SMILES: CCN(CC)N=Cc1c2c(O)c3c(O)c(C)c4c(c3c1O)C(=O)C(C)(OC=CC(OC)C(C)C(OC(C)=O)C(C)C(O)C(C)C(O)C(C)C=CC=C(C)C(=O)N2)O4 (stereo not drawn) [N,N-Diethylhydrazone of 3-formylrifamycin SV]
- MIC [6]: > 100 µg/mL

SMILES: COC1C=COC2(C)Oc3c(C)c(O)c4c(O)c(c(C=NNc5cc(C)c6cccc(C)c6n5)c(O)c4c3C2=O)NC(=O)C(C)=CC=CC(C)C(O)C(C)C(O)C(C)C(OC(C)=O)C1C (stereo not drawn) [Example 25]
- MIC [6]: 20 µg/mL (≈ 22.3 µM)

SMILES: COC1C=COC2(C)Oc3c(C)c(O)c4c(O)c(c(C=NNc5c(Cl)cc(Cl)cc5Cl)c(O)c4c3C2=O)NC(=O)C(C)=CC=CC(C)C(O)C(C)C(O)C(C)C(OC(C)=O)C1C (stereo not drawn) [Example 39]
- MIC [6]: 5 µg/mL (≈ 5.44 µM)
